Source: patent US9868757B2, “5-β, 14-β-androstane derivatives useful for the treatment of proteinuria, glomerulosclerosis and renal failure” (SIGMA-TAU INDUSTRIE FARMACEUTICHE RIUNITE S.p.A., priority 2009, dated 2018)
Several values for one entry are separate records, joined by “and”; a condition that tells them apart may be missing. Identical values can stand only once.

How the values were obtained:
[1] = test system: rats chronically infused with ouabain (OS rats); assay: Total urinary protein excretion in ouabain-infused (OS) rats; format: in vivo, rat
Protocol: (§1) To test the activity of the compound of the invention for the prevention of proteinuria and loss of renal glomerular proteins, rats chronically infused with ouabain (OS rats) or saline (Control rats) were utilized.
(§2) Two groups of 2-month-old OS rats (n=8 each) were orally treated by gavage with vehicle (Methocel 0.5%) or Rostafuroxin (100 μg/kg) for 8 weeks. One group of saline infused rats was used as control. After this period, systolic blood pressure and urinary protein excretion was measured in the three groups. The animals of the three groups were then sacrificed for nephrin quantification from renal cortex microsomes by Western blotting.
(§3) Three week-old male Sprague-Dawley rats (Harlan, Ind.), weighing 100-110 g, were subcutaneously implanted with osmotic mini-pumps, releasing either 15 μg/kg/day of ouabain (OS rats, n=16) for 14 weeks or sterile saline (CS rats, n=8) (Ferrari P. et al. J. Pharmacol Exp. Ther. 1998; 285: 83-94). […] Systolic blood pressure (SBP) and heart rate (HR) were measured weekly in conscious rats by tail-cuff plethysmography (BP recorder, U. Basile, Italy).
(§4) Urinary parameters were measured in conscious OS and control rats at the 12th week of treatment. […] After centrifugation (4500 rpm for 20 min; Varifuge 3.2 RS, Haereus Instruments, AHSI, Milan, Italy), rat urines were analyzed for the urinary volume (ml), quantified by weighing the urinary reservoir on a precision Mettler balance; urinary pH (pHM83, Radiometer, Copenhagen) and total urinary protein excretion (mg/24 h), measured with a standard total protein Kit (Sentinel Diagnostics, Milan, Italy). The animals of the three groups were then sacrificed, renal cortical microsomes were prepared from each rat and nephrin, the key protein of the slit diaphragm membrane, was quantified by Western blotting. […] Nephrin quantification is expressed as optical density, arbitrary units.

[2] = test system: rats chronically infused with ouabain (OS rats); assay: Systolic blood pressure by tail-cuff plethysmography in ouabain-infused (OS) rats; format: in vivo, rat
Protocol: as §1, §2
Three week-old male Sprague-Dawley rats (Harlan, Ind.), weighing 100-110 g, were subcutaneously implanted with osmotic mini-pumps, releasing either 15 μg/kg/day of ouabain (OS rats, n=16) for 14 weeks or sterile saline (CS rats, n=8) (Ferrari P. et al. J. Pharmacol Exp. Ther. 1998; 285: 83-94). At the 6th week of ouabain infusion, OS rats were randomly assigned to two groups (n=8 each): the first (OS treated) received Rostafuroxin orally at 100 μg/kg/day, suspended in 0.5% w/v Methocel, and the second group (controls) only vehicle. Systolic blood pressure (SBP) and heart rate (HR) were measured weekly in conscious rats by tail-cuff plethysmography (BP recorder, U. Basile, Italy).

[3] = test system: rats chronically infused with ouabain (OS rats); assay: Nephrin quantification from renal cortex microsomes of OS rats by Western blotting; format: in vivo, rat
Protocol: as §1, §2, §3, §4

[4] = test system: Podocytes from NB rats; assay: Podocyte protein quantification by Western blotting in cultured podocytes from NB rats; format: cell-based, rat
Description: To test the activity of the compound of the invention for the prevention of loss of podocyte proteins, congenic NB rats carrying the beta adducin mutation (Tripodi G. et at Effect of Addl gene transfer on blood pressure in reciprocal congenic strains of Milan rats. BBRC 2004; 324: 562-568) were used. Said NB rats are non-hypertensive rats and are available at Prassis Research Institute, Sigma-tau, Italy.
NB rats of 7 to 10 days of age were used for podocyte isolation and culture. Podocytes from NB rats were incubated for 5 days without (NB control, n=4) and with Rostafuroxin at 10^−9M (NB n=5). Podocyte proteins were quantified at the end of the 5 days of incubation by Western blotting. The quantification by Western blot was replicated two to three times for each podocyte marker. Tables IA and IB show the final number of podocyte samples analyzed for each condition, as mean values of the replicates (NB control, n=4; NB+Rostafuroxin, n=5). The densitometric analysis was quantified as optical density, in arbitrary units.
Glomeruli were isolated from NB kidneys by sieving and further manually purification. Glomeruli were then seeded in culture flasks (Corning, Sigma-Aldrich, Milan, Italy), pre-coated with collagen type IV (Sigma-Aldrich) at 37° C. in 5% CO2 atmosphere. On days 4 to 5, podocyte growth started and, by day 8, glomeruli were detached using trypsin-EDTA. […] Podocyte protein quantification (10 μg protein/lane) was performed by Western blotting technique by using specific antibodies against nephrin, podocin, ZO-1, adducin, synaptopodin and actin.

[5] = OS rats orally treated for 8 weeks with Rostafuroxin 100 μg/kg/day, FIG. 6
[6] = NB + Rostafuroxin 10^-9M vs NB controls
[7] = NB podocytes, 5 days with Rostafuroxin 10^-9M, individual samples/replicates
[8] = NB podocytes, 5 days with Rostafuroxin 10^-9M, mean ± sem

`C[C@]12CC[C@H](O)C[C@H]1CC[C@@H]1[C@@H]2CC[C@]2(C)[C@@](O)(c3ccoc3)CC[C@]12O` [Rostafuroxin] was tested, and the “urinary protein excretion (in words)” value [1, 5] was “significantly reduced”, the Proteinuria ([1]; OS rats, 100 μg/kg os Rostafuroxin, 24-hours urine, individual rats) was 55.34 mg/24 h and 29.02 mg/24 h and 39.7 mg/24 h and 40.68 mg/24 h and 20.85 mg/24 h and 48.88 mg/24 h and 53.07 mg/24 h and 20.14 mg/24 h and the “Proteinuria, mean ± sem” value ([1]; OS rats, 100 μg/kg os Rostafuroxin, 24-hours urine, n = 8) was 38.5 ± 4.9, n = 8 mg/24 h. For the same molecule, the “systolic blood pressure (SBP) (in words)” value [2, 5] was “significantly reduced”, the “Systolic blood Pressure” value ([2]; OS rats, 100 μg/kg os Rostafuroxin for 8 weeks, individual rats) was 155 mmHg (3×) and 145 mmHg (2×) and 150 mmHg (2×) and 135 mmHg and the “Systolic blood Pressure, mean ± sem” value ([2]; OS rats, 100 μg/kg os Rostafuroxin for 8 weeks, n = 8) was 148.8 ± 2.5, n = 8 mmHg. The “Nephrin expression from renal cortex (in words)” value [3, 5] was “increased”, the Nephrin optical density ([3]; OS rats, 100 μg/kg os Rostafuroxin for 8 weeks, renal cortex microsomes, individual rats) was 51.4 arbitrary units and 50.8 arbitrary units and 76.1 arbitrary units and 57.4 arbitrary units and 48.8 arbitrary units and 53.8 arbitrary units and 64.7 arbitrary units and 54.8 arbitrary units and the “Nephrin optical density, mean ± sem” value ([3]; OS rats, 100 μg/kg os Rostafuroxin for 8 weeks, renal cortex microsomes, n = 8) was 57.3 ± 3.1, n = 8 arbitrary units. For the same molecule, the “Actin, % vs. Ctrl.” value [4, 6] was “ns”, the “Nephrin, % vs. Ctrl.” value [4, 6] was “+34%” and the “Podocin, % vs. Ctrl.” value [4, 6] was “+60%”. For the same molecule, the “Synaptopodin, % vs. Ctrl.” value [4, 6] was “+143%”, the “ZO-1, % vs. Ctrl.” value [4, 6] was “+86%” and the “α-Adducin, % vs. Ctrl.” value [4, 6] was “+95%”. The “amounts of Nephrin, ZO-1, Podocin, α-Adducin and Synaptopodin (in words)” value ([4]; NB podocytes cultured 5 days with 10^-9M Rostafuroxin, FIG. 5) was “increased”, the “Synaptopodin, optical density” value ([4]; NB podocytes, 5 days with Rostafuroxin 10^-9M, individual samples) was 2.7 arbitrary units and 2.51 arbitrary units and 4.29 arbitrary units and 1.43 arbitrary units and 2.56 arbitrary units and the “Actin, optical density” value [4, 7] was 130.5 arbitrary units and 115 arbitrary units and 87.5 arbitrary units and 140.4 arbitrary units and 111 arbitrary units and 98 arbitrary units and 98.2 arbitrary units and 81.2 arbitrary units and 86.2 arbitrary units and 101.2 arbitrary units and 101 arbitrary units and 144.2 arbitrary units and 87.7 arbitrary units and 108 arbitrary units and 103 arbitrary units and 91.6 arbitrary units. The “Nephrin optical density” value [4, 7] was 24.53 arbitrary units and 27.06 arbitrary units, the “Podocin, optical density” value [4, 7] was 23.4 arbitrary units and 49.06 arbitrary units and 13.3 arbitrary units and 19.07 arbitrary units and 16.81 arbitrary units and 18.63 arbitrary units and 21.42 arbitrary units and 18.78 arbitrary units and 23.84 arbitrary units and 36.51 arbitrary units and 21.23 arbitrary units and 23.65 arbitrary units and 27.62 arbitrary units and the “ZO-1, optical density” value [4, 7] was 6.38 arbitrary units and 7.5 arbitrary units and 8.73 arbitrary units and 13.33 arbitrary units and 15.79 arbitrary units and 11.67 arbitrary units and 16.05 arbitrary units and 19.98 arbitrary units and 12.78 arbitrary units and 19.06 arbitrary units and 20.13 arbitrary units and 17.3 arbitrary units and 17.8 arbitrary units. The “α-Adducin, optical density” value [4, 7] was 22.23 arbitrary units and 6.06 arbitrary units and 5.70 arbitrary units and 6.77 arbitrary units and 8.06 arbitrary units and 7.53 arbitrary units and 9.33 arbitrary units and 7.07 arbitrary units, the “Nephrin, optical density, mean” value ([4]; NB podocytes, 5 days with Rostafuroxin 10^-9M, mean) was 25.8 arbitrary units and the “Actin, optical density, mean ± sem” value [4, 8] was 105.3 ± 4.75 arbitrary units. For the same molecule, the “Podocin, optical density, mean ± sem” value [4, 8] was 24.13 ± 2.6 arbitrary units, the “Synaptopodin, optical density, mean ± sem” value [4, 8] was 2.70 ± 0.45 arbitrary units and the “ZO-1, optical density, mean ± sem” value [4, 8] was 14.36 ± 1.3 arbitrary units. The “α-Adducin, optical density, mean ± sem” value [4, 8] was 9.09 ± 1.9 arbitrary units.
